Source: article PMC5218480 (PLoS ONE, 2017)

Tested on: MV-4-11 cells
Assay: Gene expression microarray analysis (Affymetrix PrimeView) and GSEA
Type: cell-based, human
Parameters: RFU PODN (11730768_x_at) / Fold change /veh PODN (11730768_x_at) / RFU LINC00158 (11744669_a_at) / Fold change /veh LINC00158 (11744669_a_at) / RFU DUSP10 (11751237_a_at) / Fold change /veh DUSP10 (11751237_a_at) / RFU ID3 (11757404_x_at) / Fold change /veh ID3 (11757404_x_at) / RFU PLEKHG5 (11737974_s_at) / Fold change /veh PLEKHG5 (11737974_s_at) / RFU LRRC4B (11730491_at) / Fold change /veh LRRC4B (11730491_at) / RFU GIMAP4 (11747438_a_at) / Fold change /veh GIMAP4 (11747438_a_at) / RFU KRT8 (11758183_x_at) / Fold change /veh KRT8 (11758183_x_at) / RFU CNN1 (11734310_a_at) / Fold change /veh CNN1 (11734310_a_at) / RFU VPS37D (11726825_at) / Fold change /veh VPS37D (11726825_at) / RFU C10orf10 (11716522_x_at) / Fold change /veh C10orf10 (11716522_x_at) / RFU KIR2DL2 /// KIR2DL4 /// KIR2DL5A /// KIR2DL5B /// KIR2DS1 /// KIR2DS2 /// KIR2DS3 /// KIR2DS4 /// KIR3DL3 /// KIR3DL3 /// KIR3DS1 (11738374_at) / Fold change /veh KIR2DL2 /// KIR2DL4 /// KIR2DL5A /// KIR2DL5B /// KIR2DS1 /// KIR2DS2 /// KIR2DS3 /// KIR2DS4 /// KIR3DL3 /// KIR3DL3 /// KIR3DS1 (11738374_at) / RFU C1QL1 (11718748_at) / Fold change /veh C1QL1 (11718748_at) / RFU TMPRSS4 (11747572_a_at) / Fold change /veh TMPRSS4 (11747572_a_at) / RFU HAMP (11756126_x_at) / Fold change /veh HAMP (11756126_x_at) / RFU RNFT2 (11725882_a_at) / Fold change /veh RNFT2 (11725882_a_at) / RFU NR4A2 (11747474_a_at) / Fold change /veh NR4A2 (11747474_a_at) / RFU ABCC12 (11746883_a_at) / Fold change /veh ABCC12 (11746883_a_at) / RFU TMEM136 (11760407_x_at) / Fold change /veh TMEM136 (11760407_x_at) / RFU CLDN22 /// WWC2 (11732394_at) / Fold change /veh CLDN22 /// WWC2 (11732394_at) / RFU HLA-DPB1 (11760878_x_at) / Fold change /veh HLA-DPB1 (11760878_x_at) / RFU SPINT1 (11716480_a_at) / Fold change /veh SPINT1 (11716480_a_at) / RFU GAP43 (11754022_s_at) / Fold change /veh GAP43 (11754022_s_at) / RFU A4GNT (11735810_at) / Fold change /veh A4GNT (11735810_at) / RFU PRB3 (11715151_x_at) / Fold change /veh PRB3 (11715151_x_at) / RFU TUBB4B (11761932_at) / Fold change /veh TUBB4B (11761932_at) / RFU CAPN14 (11732068_a_at) / Fold change /veh CAPN14 (11732068_a_at) / RFU TMCC2 (11721928_a_at) / Fold change /veh TMCC2 (11721928_a_at) / RFU IRGQ (11745062_a_at) / Fold change /veh IRGQ (11745062_a_at) / RFU FAM174B (11720279_a_at) / Fold change /veh FAM174B (11720279_a_at) / RFU TMPRSS4 (11748680_a_at) / Fold change /veh TMPRSS4 (11748680_a_at) / RFU FAM212B (11763350_a_at) / Fold change /veh FAM212B (11763350_a_at) / RFU PLEKHG5 (11743358_a_at) / Fold change /veh PLEKHG5 (11743358_a_at) / RFU ZSCAN30 (11745921_a_at) / Fold change /veh ZSCAN30 (11745921_a_at) / RFU CMKLR1 (11741424_a_at) / Fold change /veh CMKLR1 (11741424_a_at) / RFU LOC101060620 /// MAPK8IP1 (11723275_at) / Fold change /veh LOC101060620 /// MAPK8IP1 (11723275_at) / RFU SPTSSB (11747773_x_at) / Fold change /veh SPTSSB (11747773_x_at) / RFU PRSS12 (11739890_at) / Fold change /veh PRSS12 (11739890_at) / RFU BIN1 (11741810_x_at) / Fold change /veh BIN1 (11741810_x_at) / RFU WNT11 (11732464_a_at) / Fold change /veh WNT11 (11732464_a_at) / RFU C10orf10 (11716521_a_at) / Fold change /veh C10orf10 (11716521_a_at) / RFU C5orf56 (11738089_at) / Fold change /veh C5orf56 (11738089_at) / RFU CYB561 (11721691_x_at) / Fold change /veh CYB561 (11721691_x_at) / RFU ANKRD19P (11752326_a_at) / Fold change /veh ANKRD19P (11752326_a_at) / RFU OR2T12 /// OR2T33 /// OR2T8 (11738714_s_at) / Fold change /veh OR2T12 /// OR2T33 /// OR2T8 (11738714_s_at) / RFU VCAN (11748164_a_at) / Fold change /veh VCAN (11748164_a_at) / RFU JSRP1 (11732532_at) / Fold change /veh JSRP1 (11732532_at) / RFU KRTAP10-11 (11738290_x_at) / Fold change /veh KRTAP10-11 (11738290_x_at) / RFU MYO3A (11730013_a_at) / Fold change /veh MYO3A (11730013_a_at) / RFU EBF3 (11725865_a_at) / Fold change /veh EBF3 (11725865_a_at) / RFU CAMK2N1 (11719241_x_at) / Fold change /veh CAMK2N1 (11719241_x_at) / RFU C5orf56 (11738088_a_at) / Fold change /veh C5orf56 (11738088_a_at) / RFU OLFML3 (11715873_a_at) / Fold change /veh OLFML3 (11715873_a_at) / RFU LOC100653217 /// NTM (11731650_a_at) / Fold change /veh LOC100653217 /// NTM (11731650_a_at) / RFU MAPK11 (11762145_a_at) / Fold change /veh MAPK11 (11762145_a_at) / RFU FIZ1 (11724087_x_at) / Fold change /veh FIZ1 (11724087_x_at) / RFU OASL (11726364_x_at) / Fold change /veh OASL (11726364_x_at) / RFU SOX15 (11748057_x_at) / Fold change /veh SOX15 (11748057_x_at) / RFU CD79A (11719716_a_at) / Fold change /veh CD79A (11719716_a_at) / RFU HIST1H1D (11736915_at) / Fold change /veh HIST1H1D (11736915_at) / RFU CASKIN2 (11723855_a_at) / Fold change /veh CASKIN2 (11723855_a_at) / RFU LOC730098 (11760151_x_at) / Fold change /veh LOC730098 (11760151_x_at) / RFU OR4N2 (11742367_at) / Fold change /veh OR4N2 (11742367_at) / RFU PRRT2 (11749266_a_at) / Fold change /veh PRRT2 (11749266_a_at) / RFU SNX32 (11753110_a_at) / Fold change /veh SNX32 (11753110_a_at) / RFU CDHR5 (11726645_a_at) / Fold change /veh CDHR5 (11726645_a_at) / RFU RCAN1 (11760418_a_at) / Fold change /veh RCAN1 (11760418_a_at) / RFU FAM167A (11723789_a_at) / Fold change /veh FAM167A (11723789_a_at) / RFU FAM26E (11764081_at) / Fold change /veh FAM26E (11764081_at) / RFU ISYNA1 (11749810_s_at) / Fold change /veh ISYNA1 (11749810_s_at) / RFU ACY1 (11761880_at) / Fold change /veh ACY1 (11761880_at) / RFU 11764098_at / Fold change /veh 11764098_at / RFU SAMD14 (11745864_x_at) / Fold change /veh SAMD14 (11745864_x_at) / RFU NPB (11741838_a_at) / Fold change /veh NPB (11741838_a_at) / RFU TMPRSS6 (11731388_a_at) / Fold change /veh TMPRSS6 (11731388_a_at) / RFU KRTAP10-2 (11738614_at) / Fold change /veh KRTAP10-2 (11738614_at) / RFU ARHGAP8 /// PRR5-ARHGAP8 (11727945_x_at) / Fold change /veh ARHGAP8 /// PRR5-ARHGAP8 (11727945_x_at) / RFU KRTAP5-7 /// NADSYN1 (11734609_at) / Fold change /veh KRTAP5-7 /// NADSYN1 (11734609_at) / RFU RASL12 (11751679_a_at) / Fold change /veh RASL12 (11751679_a_at) / RFU CDKN2B (11736163_a_at) / Fold change /veh CDKN2B (11736163_a_at) / RFU PRF1 (11729649_at) / Fold change /veh PRF1 (11729649_at) / RFU, ZNF638 /// ZNF638-IT1 / Fold change vs veh, ZNF638 /// ZNF638-IT1 / RFU, PANK3 / Fold change vs veh, PANK3 / RFU, SH3YL1 / Fold change vs veh, SH3YL1 / RFU, ZEB2 / Fold change vs veh, ZEB2 / RFU, NRIP1 / Fold change vs veh, NRIP1 / RFU, PTTG1IP / Fold change vs veh, PTTG1IP / RFU, CAPN2 / Fold change vs veh, CAPN2 / RFU, MED14 / Fold change vs veh, MED14 / RFU, SNORA58 / Fold change vs veh, SNORA58 / RFU, C1orf63 / Fold change vs veh, C1orf63 / RFU, LRRFIP1 / Fold change vs veh, LRRFIP1 / RFU, NDUFAF7 / Fold change vs veh, NDUFAF7 / RFU, SLC12A2 / Fold change vs veh, SLC12A2 / RFU, IBTK / Fold change vs veh, IBTK / RFU, ESF1 / Fold change vs veh, ESF1 / Fold change vs veh, TMEM50B / RFU, TAOK1 / Fold change vs veh, TAOK1 / RFU, ACBD3 / Fold change vs veh, ACBD3 / RFU, TMA16 / Fold change vs veh, TMA16 / RFU, RWDD3 / Fold change vs veh, RWDD3 / RFU, BCAT1 / Fold change vs veh, BCAT1 / RFU, EDEM3 / Fold change vs veh, EDEM3 / RFU, TMEM33 / Fold change vs veh, TMEM33 / RFU, WDR75 / Fold change vs veh, WDR75 / RFU, AHCTF1 / Fold change vs veh, AHCTF1 / RFU, TFRC / Fold change vs veh, TFRC / RFU, ZDHHC17 / Fold change vs veh, ZDHHC17 / RFU, NOM1 / Fold change vs veh, NOM1 / RFU, ARL8B / Fold change vs veh, ARL8B / RFU, ZBTB11 / Fold change vs veh, ZBTB11 / RFU, TAMM41 / Fold change vs veh, TAMM41 / RFU, KIAA1704 /// LOC100996395 / Fold change vs veh, KIAA1704 /// LOC100996395 / RFU, ING1 / Fold change vs veh, ING1 / RFU, TRMT61B / Fold change vs veh, TRMT61B / RFU, FUBP3 / Fold change vs veh, FUBP3 / RFU, TP53 / Fold change vs veh, TP53 / RFU, TNKS2 / Fold change vs veh, TNKS2 / RFU, ZFP14 / Fold change vs veh, ZFP14 / RFU, ACTR2 / Fold change vs veh, ACTR2 / RFU, PPP3R1 / Fold change vs veh, PPP3R1 / RFU, PIK3R1 / Fold change vs veh, PIK3R1 / RFU, HNRNPA1 / Fold change vs veh, HNRNPA1 / RFU, RNF170 / Fold change vs veh, RNF170 / RFU, ZNF28 / Fold change vs veh, ZNF28 / RFU, RNGTT / Fold change vs veh, RNGTT / RFU, OGT / Fold change vs veh, OGT / RFU, BRD1 / Fold change vs veh, BRD1 / RFU, MARS / Fold change vs veh, MARS / RFU, ZNF655 / Fold change vs veh, ZNF655 / RFU, FAHD1 / Fold change vs veh, FAHD1 / RFU, BDP1 / Fold change vs veh, BDP1 / RFU, LRRCC1 / Fold change vs veh, LRRCC1 / RFU, ARID1A / Fold change vs veh, ARID1A / RFU, ZNF146 / Fold change vs veh, ZNF146 / RFU, ZNF330 / Fold change vs veh, ZNF330 / RFU, GPN3 / Fold change vs veh, GPN3 / RFU, C9orf123 / Fold change vs veh, C9orf123 / RFU, N4BP2L2 / Fold change vs veh, N4BP2L2 / RFU, ARFIP1 / Fold change vs veh, ARFIP1 / RFU, FAM179B / Fold change vs veh, FAM179B / RFU, BCL10 / Fold change vs veh, BCL10 / RFU, UHRF1BP1L / Fold change vs veh, UHRF1BP1L / RFU, BET1 / Fold change vs veh, BET1 / RFU, CNOT2 / Fold change vs veh, CNOT2 / RFU, ZNF268 / Fold change vs veh, ZNF268 / Fold change vs veh, ZNF507 / RFU, DGCR2 / Fold change vs veh, DGCR2 / RFU, WDSUB1 / Fold change vs veh, WDSUB1 / Fold change vs veh, HSP90B1 /// MIR3652 / RFU, ADSS / Fold change vs veh, ADSS / RFU, GK / Fold change vs veh, GK / RFU, ZNF148 / Fold change vs veh, ZNF148 / RFU, TAF9 / Fold change vs veh, TAF9 / RFU, SLC1A5 / Fold change vs veh, SLC1A5 / RFU, SLMO2 / Fold change vs veh, SLMO2 / RFU, ABCC4 / Fold change vs veh, ABCC4 / RFU, LOC101060439 /// RAP1B / Fold change vs veh, LOC101060439 /// RAP1B / RFU, RFX7 / Fold change vs veh, RFX7 / RFU, GTPBP10 / Fold change vs veh, GTPBP10 / RFU, CNEP1R1 / Fold change vs veh, CNEP1R1 / RFU, BIVM-ERCC5 /// ERCC5 / Fold change vs veh, BIVM-ERCC5 /// ERCC5 / RFU, ILF3 / Fold change vs veh, ILF3 / RFU 11762660_at / Fold change /veh 11762660_at / RFU VCAN (11757783_s_at) / Fold change /veh VCAN (11757783_s_at) / RFU DDX43 (11728927_at) / Fold change /veh DDX43 (11728927_at) / RFU KRT8 (11758188_x_at) / Fold change /veh KRT8 (11758188_x_at) / RFU NKD1 (11759106_at) / Fold change /veh NKD1 (11759106_at) / RFU SRD5A1 (11742802_a_at) / Fold change /veh SRD5A1 (11742802_a_at) / RFU TPSAB1 /// TPSB2 (11721975_s_at) / Fold change /veh TPSAB1 /// TPSB2 (11721975_s_at) / RFU GSTM3 (11746129_a_at) / Fold change /veh GSTM3 (11746129_a_at) / RFU IL23R (11737362_x_at) / Fold change /veh IL23R (11737362_x_at) / RFU TMEM51 (11727254_a_at) / Fold change /veh TMEM51 (11727254_a_at) / RFU PIWIL2 (11732686_x_at) / Fold change /veh PIWIL2 (11732686_x_at) / RFU ORM1 (11744905_x_at) / Fold change /veh ORM1 (11744905_x_at) / RFU CCDC152 (11743942_at) / Fold change /veh CCDC152 (11743942_at) / RFU ECM1 (11717891_a_at) / Fold change /veh ECM1 (11717891_a_at) / RFU IL23R (11748794_a_at) / Fold change /veh IL23R (11748794_a_at) / RFU TNFAIP8L3 (11732012_x_at) / Fold change /veh TNFAIP8L3 (11732012_x_at) / RFU MBOAT4 (11741988_at) / Fold change /veh MBOAT4 (11741988_at) / RFU 11764193_at / Fold change /veh 11764193_at / RFU TMEM53 (11763286_at) / Fold change /veh TMEM53 (11763286_at) / RFU MAGEB2 (11727129_at) / Fold change /veh MAGEB2 (11727129_at) / RFU TMEM200A (11744735_a_at) / Fold change /veh TMEM200A (11744735_a_at) / RFU CCDC152 (11751479_a_at) / Fold change /veh CCDC152 (11751479_a_at) / RFU FAM211A (11726209_a_at) / Fold change /veh FAM211A (11726209_a_at) / RFU RGS16 (11746705_a_at) / Fold change /veh RGS16 (11746705_a_at) / RFU VCAN (11755009_s_at) / Fold change /veh VCAN (11755009_s_at) / RFU RHOB (11743442_s_at) / Fold change /veh RHOB (11743442_s_at) / RFU RGS16 (11720943_a_at) / Fold change /veh RGS16 (11720943_a_at) / RFU RGS16 (11720944_at) / Fold change /veh RGS16 (11720944_at) / RFU, VPS4B / Fold change vs veh, VPS4B / RFU, CREB1 / Fold change vs veh, CREB1 / RFU, DNAJC13 / Fold change vs veh, DNAJC13 / RFU, GNAQ / Fold change vs veh, GNAQ / RFU, CDK5R1 / Fold change vs veh, CDK5R1 / RFU, ZRANB3 / Fold change vs veh, ZRANB3 / RFU, CUL4A / Fold change vs veh, CUL4A / RFU, CCNY / Fold change vs veh, CCNY / RFU, UFL1 / Fold change vs veh, UFL1 / RFU, COG3 / Fold change vs veh, COG3 / RFU, DIAPH2 / Fold change vs veh, DIAPH2 / RFU, SKA2 / Fold change vs veh, SKA2 / RFU, AFF3 / Fold change vs veh, AFF3 / RFU, LMF1 / Fold change vs veh, LMF1 / RFU, IPO11 / Fold change vs veh, IPO11 / RFU, DFFB / Fold change vs veh, DFFB / RFU, FOXP1 / Fold change vs veh, FOXP1 / RFU, CARD8 / Fold change vs veh, CARD8 / RFU, STRN3 / Fold change vs veh, STRN3 / RFU, ADK / Fold change vs veh, ADK / RFU, RASSF2 / Fold change vs veh, RASSF2 / RFU, WIPF1 / Fold change vs veh, WIPF1 / RFU, LARP1B / Fold change vs veh, LARP1B / RFU, RASA1 / Fold change vs veh, RASA1 / RFU, RB1 / Fold change vs veh, RB1 / RFU, PPFIA1 / Fold change vs veh, PPFIA1 / RFU, MAT2A / Fold change vs veh, MAT2A / RFU, CCT5 / Fold change vs veh, CCT5 / RFU, WDR92 / Fold change vs veh, WDR92 / RFU, CUX1 / Fold change vs veh, CUX1 / RFU, TTC7A / Fold change vs veh, TTC7A / RFU, TMEM135 / Fold change vs veh, TMEM135 / RFU, DEPTOR / Fold change vs veh, DEPTOR / RFU, CPM / Fold change vs veh, CPM / RFU, DNAJB6 / Fold change vs veh, DNAJB6 / RFU, CACNA2D3 / Fold change vs veh, CACNA2D3 / RFU, DTX4 / Fold change vs veh, DTX4 / RFU, TFCP2 / Fold change vs veh, TFCP2 / RFU, GMCL1 /// GMCL1P1 / Fold change vs veh, GMCL1 /// GMCL1P1 / RFU, AEBP2 / Fold change vs veh, AEBP2 / RFU, SNHG1 /// SNORD22 /// SNORD25 /// SNORD26 /// SNORD27 /// SNORD28 /// SNORD29 /// SNORD31 / Fold change vs veh, SNHG1 /// SNORD22 /// SNORD25 /// SNORD26 /// SNORD27 /// SNORD28 /// SNORD29 /// SNORD31 / Fold change (Aza/veh), C12orf56 (ProbeSet 11735607_a_at) / Fold change (ACY-1035/veh), C12orf56 (ProbeSet 11735607_a_at) / Fold change (Aza/veh), FGFR1OP (ProbeSet 11751329_s_at) / Fold change (ACY-1035/veh), FGFR1OP (ProbeSet 11751329_s_at) / Fold change (Aza/veh), VPS36 (ProbeSet 11739960_a_at) / Fold change (ACY-1035/veh), VPS36 (ProbeSet 11739960_a_at) / RFU SYPL1 (11715823_x_at) / Fold change /veh SYPL1 (11715823_x_at) / RFU IGFBP7 (11715501_s_at) / Fold change /veh IGFBP7 (11715501_s_at) / RFU REEP3 (11722064_at) / Fold change /veh REEP3 (11722064_at) / RFU IGLL1 (11728026_x_at) / Fold change /veh IGLL1 (11728026_x_at): dose or concentration left out as unconfirmed
Conditions: MV-4-11 cells, 48 hours

Nc1ncn([C@@H]2O[C@H](CO)[C@@H](O)[C@H]2O)c(=O)n1 [azacitidine]
RFU IRGQ (11745062_a_at): 24.06 RFU
